Reference: EP3495372B1 (priority 2017, dated 2019)
Values after ≈ are worked out from the molar mass of the structure shown.

What was measured:
[1] = system: differentiated SH-SY5Y human neuroblastoma cells; experiment: MTT assay, neuroprotective effects against Aβ1-42 cytotoxicity; assay type: cell-based; settings: 24 h, read-out: increase in the cell viability (MTT assay)
Experimental: Cell cultures and differentiation: SH-SY5Y cell line were growth in DMEM:F12 (1:1) media including 10% FBS and 1% penicillin/streptomycin at 37 °C and 5% CO2 until cells reach confluence. Then, cells harvested via using trypsin/EDTA solution and transferred to 48 well plates. For differentiation, media were changed to supplemented media with 10 µg/mL retinoic acid and incubated for 5 days. Finally, media were changed into serum free media supplementing with both 10 µM retinoic acid and 25 ng/mL BDNF. Differentiated cells were determined under invert microscope and the cells were used within 10 days (Encinas M, Iglesias M, Liu Y, Wang H, Muhaisen A, Ceña V, Gallego C, Comella JX. Sequential treatment of SH-SY5Y cells with retinoic acid and brain-derived neurotrophic factor gives rise to fully differentiated, neurotrophic factor-dependent, human neuron-like cells. J. Neurochem. 2002; 75:991-1003 e Cheung YT, Lau WKW, Yu MS, Lai CSW, Yeung SC, So KF, Chang RCC. Effects of all-trans-retinoic acid on human SH-SY5Y neuroblastoma as in vitro model in neurotoxicity research. Neurotoxicol. 2009; 30:127-135).
Control cells (n = 6) were cultured under normal conditions. 1% Triton X, ascorbic acid (10 µM) and hydrogen peroxide (H2O2, 25 µM) were used as positive controls for cell viability, TAC and TOS analysis, respectively.
The cultures without BLA, MEM, or LA were studied as negative control group. 1% Triton-X was added to the culture media to provide negative control group. MTT reduction and LDH release observed after 24 h of Aβ1-42-exposure at 20 µM.

[2] = molecular target: T1, acetylcholinesterase (AChE) (Homo sapiens, UniProt P22303); experiment: AChE activity in cellular model of Alzheimer's disease; assay type: cell-based; settings: with 20 µM Aβ1-42, 24 h
T1 construct: endogenous in cells
Experimental: Determination of AChE activity: the activity of AChE within the cellular Alzheimer Disease's model was measured by the Acetylcholinesterase Assay Kit (Colorimetric) from Abcam^(R) (Cambridge, MA, USA) according to the manufacturer's recommended protocol.
AChE activity was evaluated in differentiated SH-SY5Y cells treated with BLA, LA, MEM (25 and 50 µM) or media alone for 24 h.

[3] = system: cultured human blood cells; experiment: Nucleic acid oxidation, 8-hydroxy-2'-deoxyguanosine assay; assay type: cell-based
Description: All volunteers have signed informed consent.
Nucleic acid oxidation: 8-hydroxy-2'-deoxyguanosine assay kits (Cayman Chemical®) was used for determining 8- OH-dG levels in the cultures. It is a competitive assay that can be used for the quantification of 8-OHdG in homogenates and recognizes both free 8-OHdG and DNA-incorporated 8-OH-dG. This assay depends on the competition between 8-OH-dG and 8-OH-dGacetylcholinesterase (AChE) conjugate for a limited amount of 8-OH-dG monoclonal antibody (Abdel-Wahab BA, Metwally ME. Ginkgo biloba enhances the anticonvulsant and neuroprotective effects of sodium valproate against kainic acid-induced seizures in mice. J Pharmacol Toxicol. 2011; 6:679-690). All procedures were carried out in accordance with the provider's manual.
The levels of 8-OH-dG, a sensitive marker of oxidative DNA damage, were quantified about mitomycin (MMC) treatment. […] On the contrary, 8-OH-dG levels were not increased in the blood cells that were treated with BLA, MEM, and LA concentrations.

[4] = system: SHSY-5Y human neuroblastoma cell line; experiment: Antitumor activity, MTT and LDH assays; assay type: cell-based; settings: dose-dependent
Experimental: Cytotechnol. 2015; 67:299-309.
Antitumor activity of BLA and MEM was tested on SHSY-5Y human neuroblastoma cell line using MTT and LDH assays. Cells were grown to near-confluency before treatment. Growth of the cell line was inhibited by both drug application in a dose-dependent manner.

[5] = system: Staphylococcus aureus ATCC 25923; experiment: Antimicrobial activity; assay type: cell-based; settings: ATCC25923, S. aureus ATCC 25923
[6] = system: Enterococcus faecalis ATCC 29212; experiment: Antimicrobial activity; assay type: cell-based; settings: ATCC29212, E. faecalis ATCC 29212
[7] = system: Escherichia coli ATCC 25922; experiment: Antimicrobial activity; assay type: cell-based; settings: ATCC25922, E. coli ATCC 25922
[8] = system: Pseudomonas aeruginosa ATCC 27853; experiment: Antimicrobial activity; assay type: cell-based; settings: ATCC27853, P. aeruginosa ATCC 27853
[9] = system: Candida albicans ATCC 90028; experiment: Antimicrobial activity; assay type: cell-based; settings: ATCC90028, C. albicans ATCC 90028
[10] = system: peripheral human whole blood (PHWB) cells; experiment: Cytotoxicity assay (MTT and LDH) on blood cells; settings: 0.1 to 100 µM, 24 h, MTT and LDH assays
Experimental: LDH assay: For LDH assay application, LDH cytotoxicity assay kit (Cayman Chemical Company®, Ann Arbor, MI, USA) was used according to the manufacturer's recommendations. The cells were transferred to 48-well plates and different concentrations of drugs were applied for 24 h. After that, 100 µL supernatant and 100 µL of reaction mixture were transferred to a fresh 48-well plate and incubated for 30 min at room temperature. Finally, the absorbance of the cultures was analyzed at 490 nm using a microplate reader as reported by Turkez H. Togar B, Di Stefano A, Taspinar N, Sozio P. Protective effects of cyclosativene on H2O2-induced injury in cultered rat primary cerebral cortx cells. […]
MTT assay: according to the manufacturer's instructions (Cayman Chemical Company®, Ann Arbor, MI, USA), 3-(4,5-Dimethylthiazol-2-yl)-2,5-diphenyltetrazolium bromide (MTT) solution was applied to cell cultures. As summary, MTT was added and incubated in the cell cultures for 3 h and after incubation dimethyl sulfoxide (DMSO) was used to solve formazan crystals, and a plate reader was used to analyse cultures at 570 nm wavelength (Togar B, Turkez H, Hacimuftuoglu A, Tatar A, Geyikoglu F. Guaiazulene biochemical activity and cytotoxic and genotoxic effects on rat neuron and N2a neuroblastom cells. J. Intercult. Ethnopharmacol. 2015; 4:29-33). […]

T1 sequence (P22303 32-614): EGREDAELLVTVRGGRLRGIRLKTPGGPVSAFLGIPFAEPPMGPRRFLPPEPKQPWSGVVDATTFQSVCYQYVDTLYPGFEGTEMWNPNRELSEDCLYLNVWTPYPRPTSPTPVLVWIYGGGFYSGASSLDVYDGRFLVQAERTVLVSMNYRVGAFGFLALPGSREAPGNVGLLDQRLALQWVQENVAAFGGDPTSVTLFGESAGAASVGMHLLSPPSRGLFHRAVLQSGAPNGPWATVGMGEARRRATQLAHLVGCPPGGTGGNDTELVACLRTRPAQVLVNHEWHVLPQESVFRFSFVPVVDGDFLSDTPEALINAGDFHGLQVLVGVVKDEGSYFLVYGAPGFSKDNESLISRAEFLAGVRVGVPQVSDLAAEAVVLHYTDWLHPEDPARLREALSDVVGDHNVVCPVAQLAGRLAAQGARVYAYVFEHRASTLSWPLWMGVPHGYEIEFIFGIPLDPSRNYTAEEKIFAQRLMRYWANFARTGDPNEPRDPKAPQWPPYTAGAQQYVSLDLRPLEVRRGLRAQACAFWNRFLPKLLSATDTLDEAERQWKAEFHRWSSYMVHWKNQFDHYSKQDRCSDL

Row | Compound | viability at 25 µM [1] [%] | viability at 50 µM [1] [%] | viability at 100 µM [1] [%] | reduced Aβ-induced AChE activity ([2]; 25 µM) [%] | reduced Aβ-induced AChE activity ([2]; 50 µM) [%] | 8-OH-dG levels [3] | antitumor effects (growth inhibition) [4] | MIC [5] [µg/mL] | MIC [6] [µg/mL] | MIC [7] [µg/mL] | MIC [8] [µg/mL] | MIC [9] [µg/mL] | changes in cell viability [10]
1 | CC1(C)C2CC3OB(CNC(=O)CCCC[C@H]4CCSS4)O[C@]3(C)C1C2 (stereo partly drawn) [BLA, 5-((S)-1,2-dithiolan-3-yl)-N-(((3aR)-3a,5,5-trimethylhexahydro-4,6-methanobenzo[d][1,3,2]dioxaborol-2-yl)methyl)pentanamide] | 25.1 | 29.9 | 32.9 | 18.77 | 22.96 | not increased | moderate antitumor effects | 256 (≈ 644 µM) | 256 (≈ 644 µM) | 128 (≈ 322 µM) | 256 (≈ 644 µM) | 128 (≈ 322 µM) | did not show any significant changes in cell viability
2 | O=C(O)CCCCC1CCSS1 (centres unmarked) [LA, 1,2-dithiolane-3-pentanoic acid] | 14.8 | 19 | 20.7 |  |  | not increased |  |  |  |  |  |  | 
